Results: patent US8895518B2, “Cooperative conveyance of basic active principles by amphiphilic acid molecules” (Centre National de la Recherche Scientifique, priority 2009, dated 2014)
Where a name gives a salt, the structure may show the parent alone.

Assays:
Assay type in all cases: physicochemical
[1] = Photodegradation monitored by UV / visible spectrophotometry; conditions: after two months under natural exposure; for λmax (nm): visible range
Description: The study of the photophysical properties of promethazine hydrochloride and the association Lac6P on the one hand, and mequitazine hydrochloride and the association Lac6M on the other, was thus undertaken by UV spectrophotometry.
This study was carried out on a Hewlett-Packard 8452A diode array spectrophotometer operating at wavelengths between 190 nm and 820 nm.
The solutions were analyzed in quartz cells at concentrations of 4×10 ^−2 M and 6.6×10^−5 M.
(§1) To carry out this study, the various solutions (4×10^−2 M) are placed in a 25° C. water bath under natural light for several weeks. This gentler mode of irradiation was preferred over the use of a Xenon lamp which degrades the active principle too rapidly and makes it impossible to establish a comparison.
However, in order to better understand this phenomenon, photodegradation of the hydrochlorides and the associations Lac6P and Lac6M was monitored by visible spectrophotometry. This analysis technique is particularly suited to the study of this phenomenon because it takes color variations into account.
After two months under natural exposure, the appearance of a band for promethazine and mequitazine hydrochlorides, as well as for the catanionic association Lac6P, confirms the color changes observed. It is important to note that in visible spectrophotometry, perceived color is always complementary to absorbed radiation. For example, mequitazine hydrochloride absorbs in the green spectrum (λ=512 nm) and appears pink-purple.

[2] = Photostability under natural light, visual observations; conditions: 4×10^−2 M solution, 25° C. water bath
Description: as §1

[3] = Photodegradation quantified by HPLC (undegraded active principle in solution); conditions: after five days under natural light, 4×10^−2 M
Description: Promethazine photodegradation was monitored by HPLC on a Waters 2695 chromatograph equipped with Millipore 510 pumps and an XBridge RP18 column (2.1×100 nm, 3.5 μm). Promethazine is detected by UV-visible spectrophotometry, at a wavelength of 251 nm, with a Waters 2487 Dual λ Absorbance Detector. The mobile phase is composed of a 22/78 mixture of 0.1% formic acid in water and acetonitrile. Elution is carried out in isocratic mode with a flow rate of 0.35 ml/min^−1. The volumes injected are 10 μl. All the samples were injected three times.
A calibration curve is prepared beforehand with promethazine hydrochloride over a range of concentrations between 10^5 M and 5×10^−2 M.
In order to refine the results obtained, degradation of promethazine hydrochloride and the catanionic association Lac6P was quantified by high-performance liquid chromatography (HPLC). Degradation is monitored by assaying the quantity of undegraded active principle present in solution (FIG. 2).

| Color observed [1] | λmax (nm) [1] [nm] | degradation rate [3] [%] | SMILES | colour change of the solution (visual observation) [2] | appearance of an insoluble product (visual observation) [2] |
| --- | --- | --- | --- | --- | --- |
| pink-purple | 512 |  | c1ccc2c(c1)Sc1ccccc1N2CC1CN2CCC1CC2 (centres unmarked) [Mequitazine hydrochloride, mequitazine hydrochloride] | turns pink after ten days of exposure, and then changes no further |  |
| violet-indigo | 538 | 13 | CC(CN1c2ccccc2Sc2ccccc21)N(C)C (centres unmarked) [Promethazine hydrochloride, promethazine hydrochloride] | turns pink after 24 hours of exposure and changes to blue-violet after a few days | an insoluble compound appears after about two weeks under natural light |
